Results as given in PMC3951388, “Structure-Function Relationship of a Plant NCS1 Member – Homology Modeling and Mutagenesis Identified Residues Critical for Substrate Specificity of PLUTO, a Nucleobase Transporter from Arabidopsis” (PLoS ONE, 2014).
“Also recorded” adds a separate entry of the source.

How the values were obtained:
PLUTO W223A = target: T1, PLUTO W223A (Arabidopsis thaliana, UniProt Q9LZD0, W223A); assay type: cell-based; settings: mutant W223A, 200 μM competitor; for Effect of competitor on uracil transport: 20 μM uracil; for Effect of competitor on guanine transport: 20 μM guanine
T1 construct: Heterologous expression of the full length PLUTO Arabidopsis gene in Escherichia coli uraA insertion mutants; expressed in transfected cells; host or cells: Escherichia coli JD23420 (uraA transposon insertion strain), vector pTAC-MAT-Tag-2
Description: (§1) For the uptake experiments, PLUTO was heterologously expressed in an Escherichia coli transposon insertion strain lacking the endogenous uracil permease uraA (JD23420), obtained from the National Institute of Genetics (Shizuoka, Japan; http://www.shigen.nig.ac.jp/ecoli/strain/top/top.jsp). PLUTO and site directed mutants were cloned in the bacterial expression vector pTAC-MAT-Tag-2 (Sigma Aldrich, Deisenhofen, Germany) as previously described. After the transformation of the cells with the PLUTO expression plasmids, the cells were grown at 37°C and 170 rpm in YT medium containing ampicillin and kanamycin. The expression of PLUTO and site directed mutants was initiated by the addition of isopropyl β-D-thiogalactopyranosid (IPTG) with a final concentration of 0.02% at an OD600 of 0.5. The cells were grown for 2 h after induction, collected by centrifugation for 5 min at 4500 g and 4°C and resuspended with potassium phosphate buffer (50 mM, pH 7.0) to an OD600 of 5. The cells were stored on ice until use.
(§2) Site directed mutagenesis was achieved by using the QuickChange II-E Site directed mutagenesis kit (Stratagene) according to the manufacturer's instructions.
(§3) The uptake of nucleobases with concentrations of 20 μM was performed at 37°C and permanent shaking at 200 rpm. For the analysis of PLUTO mutants the cells were incubated for 5 min (2 min for competition studies) and the uptake was terminated by vacuum filtration through a membrane filter (0.45 μm pore size; Whatman). The cells were washed three times with 1 ml ice cold potassium phosphate buffer (50 mM, pH 7.0) to remove unimported nucleobases and the radioactivity was quantified in a Packard Tricarb 2500 scintillation counter after the addition of 4 mL scintillation cocktail (Roth). For the competition studies, all competitors were added with ten-fold excess (200 μM) to the uptake medium containing 20 μM radiolabelled nucleobases.

O=c1cc[nH]c(=O)[nH]1 = test: cells, lysate or membranes; settings: corrected for uptake into uninduced cells, pH 7.0
Nc1ncnc2nc[nH]c12 = test: cells, lysate or membranes; settings: corrected for uptake into uninduced cells, pH 7.0
PLUTO I226A = PLUTO I226A (Arabidopsis thaliana, UniProt Q9LZD0, I226A); settings: mutant I226A; 20 μM guanine, 200 μM competitor
Description: as §1, §2, §3

PLUTO F341A = PLUTO F341A (Arabidopsis thaliana, UniProt Q9LZD0, F341A); settings: mutant F341A; 20 μM guanine, 200 μM competitor
Description: as §1, §2, §3

PLUTO [1] = target: T2, PLUTO (Arabidopsis thaliana, UniProt Q9LZD0); assay type: cell-based; settings: wild type PLUTO, 200 μM competitor; for Effect of competitor on guanine transport: 20 μM radiolabelled guanine; for Effect of competitor on guanine transport / Effect of competitor on uracil transport / Effect of competitor on adenine transport: 2 min; for Effect of competitor on uracil transport: 20 μM [14C]-uracil; for Effect of competitor on adenine transport: 20 μM radiolabelled adenine
T2 construct: Heterologous expression of the full length PLUTO Arabidopsis gene in Escherichia coli uraA insertion mutants; expressed in transfected cells; host or cells: Escherichia coli JD23420 (uraA transposon insertion strain), vector pTAC-MAT-Tag-2
T2 sequence (Q9LZD0 1-599): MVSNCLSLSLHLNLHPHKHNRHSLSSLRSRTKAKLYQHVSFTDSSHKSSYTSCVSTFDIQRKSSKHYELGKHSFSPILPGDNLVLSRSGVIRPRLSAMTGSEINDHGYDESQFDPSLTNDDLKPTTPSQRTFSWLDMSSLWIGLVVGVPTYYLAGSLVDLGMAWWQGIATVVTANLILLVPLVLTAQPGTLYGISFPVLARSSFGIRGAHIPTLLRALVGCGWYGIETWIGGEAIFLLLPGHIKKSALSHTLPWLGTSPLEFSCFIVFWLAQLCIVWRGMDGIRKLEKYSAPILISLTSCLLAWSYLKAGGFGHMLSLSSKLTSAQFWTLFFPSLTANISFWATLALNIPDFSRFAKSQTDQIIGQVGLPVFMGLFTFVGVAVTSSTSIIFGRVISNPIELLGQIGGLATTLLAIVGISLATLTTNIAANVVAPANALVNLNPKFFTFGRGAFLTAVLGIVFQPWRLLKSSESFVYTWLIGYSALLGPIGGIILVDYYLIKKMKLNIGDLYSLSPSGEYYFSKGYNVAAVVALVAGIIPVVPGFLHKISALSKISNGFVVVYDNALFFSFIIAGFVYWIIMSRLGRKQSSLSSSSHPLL
Description: as §1, §3

PLUTO [2] = target: T2, PLUTO; test: Radiolabelled nucleobase uptake, wild type PLUTO expressed in E. coli lacking uraA; assay type: cell-based; settings: for Net import: wild type PLUTO (control), 5 min, corrected for uninduced cells
Description: The cells were stored on ice until use.

PLUTO [3] = target: T2, PLUTO; settings: full length PLUTO in E. coli uraA insertion mutants; ref [4]; cited from earlier work
PLUTO E227Q T425A = target: T3, PLUTO E227Q T425A (Arabidopsis thaliana, UniProt Q9LZD0, E227Q/T425A); test: Radiolabelled nucleobase uptake, PLUTO mutant in E. coli lacking uraA; assay type: cell-based; settings: 20 μM, 5 min
T3 construct: Heterologous expression of the full length PLUTO Arabidopsis gene in Escherichia coli uraA insertion mutants; expressed in transfected cells; host or cells: Escherichia coli JD23420 (uraA transposon insertion strain), vector pTAC-MAT-Tag-2
Description: as §1, §2, §3

PLUTO E227Q G147Q = target: T4, PLUTO E227Q G147Q (Arabidopsis thaliana, UniProt Q9LZD0, E227Q/G147Q); test: as above; assay type: cell-based; settings: 20 μM, 5 min
T4 construct: Heterologous expression of the full length PLUTO Arabidopsis gene in Escherichia coli uraA insertion mutants; expressed in transfected cells; host or cells: Escherichia coli JD23420 (uraA transposon insertion strain), vector pTAC-MAT-Tag-2
Description: as §1, §2, §3

PLUTO E227K = target: T5, PLUTO E227K (Arabidopsis thaliana, UniProt Q9LZD0, E227K); test: as above; assay type: cell-based; settings: 20 μM, 5 min
T5 construct: Heterologous expression of the full length PLUTO Arabidopsis gene in Escherichia coli uraA insertion mutants; expressed in transfected cells; host or cells: Escherichia coli JD23420 (uraA transposon insertion strain), vector pTAC-MAT-Tag-2
Description: as §1, §2, §3

PLUTO G147Q = PLUTO G147Q (Arabidopsis thaliana, UniProt Q9LZD0, G147Q); settings: mutant G147Q; 20 μM; 5 min
Description: as §1, §2, §3

PLUTO E227D = PLUTO E227D (Arabidopsis thaliana, UniProt Q9LZD0, E227D); settings: mutant E227D; 20 μM; 5 min
Description: as §1, §2, §3

PLUTO E227Q = PLUTO E227Q (Arabidopsis thaliana, UniProt Q9LZD0, E227Q); test: Radiolabelled nucleobase uptake, PLUTO mutant in E. coli lacking uraA; settings: 20 μM, 5 min
Description: as §1, §2, §3

PLUTO V145A G147Q = PLUTO V145A G147Q (Arabidopsis thaliana, UniProt Q9LZD0, G147Q/V145A); test: as above; settings: 20 μM, 5 min
Description: as §1, §2, §3

PLUTO E227A = PLUTO E227A (Arabidopsis thaliana, UniProt Q9LZD0, E227A); test: as above; settings: 20 μM, 5 min
Description: as §1, §2, §3

Nc1nc2nc[nH]c2c(=O)[nH]1 = test: cells, lysate or membranes; settings: pH 7.0; 37.0 °C

T4 sequence (Q9LZD0 whole entry G147Q/E227Q): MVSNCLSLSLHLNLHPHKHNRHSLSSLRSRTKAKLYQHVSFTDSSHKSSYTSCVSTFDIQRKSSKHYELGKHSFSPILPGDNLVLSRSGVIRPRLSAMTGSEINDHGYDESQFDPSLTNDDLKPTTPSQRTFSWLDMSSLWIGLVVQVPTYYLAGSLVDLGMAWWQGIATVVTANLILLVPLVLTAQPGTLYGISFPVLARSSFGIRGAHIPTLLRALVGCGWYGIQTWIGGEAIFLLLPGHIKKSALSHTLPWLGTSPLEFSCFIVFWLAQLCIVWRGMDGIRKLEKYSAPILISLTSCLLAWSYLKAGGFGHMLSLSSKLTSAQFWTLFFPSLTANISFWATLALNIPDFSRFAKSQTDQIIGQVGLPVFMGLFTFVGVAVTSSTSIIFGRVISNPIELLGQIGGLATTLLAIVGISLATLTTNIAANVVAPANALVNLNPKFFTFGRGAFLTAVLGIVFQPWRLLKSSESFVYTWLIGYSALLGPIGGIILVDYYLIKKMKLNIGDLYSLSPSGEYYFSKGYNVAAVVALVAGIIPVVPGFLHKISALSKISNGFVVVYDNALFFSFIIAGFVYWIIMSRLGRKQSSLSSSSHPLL
T1 sequence (Q9LZD0 whole entry W223A): as the sequence (Q9LZD0 whole entry G147Q/E227Q) above, with Q147G, W223A, Q227E counted along it
T5 sequence (Q9LZD0 whole entry E227K): as the sequence (Q9LZD0 whole entry G147Q/E227Q) above, with Q147G, Q227K counted along it
Chain of PLUTO E227D (Q9LZD0 whole entry E227D): as the sequence (Q9LZD0 whole entry G147Q/E227Q) above, with Q147G, Q227D counted along it
Chain of PLUTO G147Q (Q9LZD0 whole entry G147Q): as the sequence (Q9LZD0 whole entry G147Q/E227Q) above, with Q227E counted along it
Chain of PLUTO E227Q (Q9LZD0 whole entry E227Q): as the sequence (Q9LZD0 whole entry G147Q/E227Q) above, with Q147G counted along it
Chain of PLUTO E227A (Q9LZD0 whole entry E227A): as the sequence (Q9LZD0 whole entry G147Q/E227Q) above, with Q147G, Q227A counted along it
T3 sequence (Q9LZD0 whole entry E227Q/T425A): as the sequence (Q9LZD0 whole entry G147Q/E227Q) above, with Q147G, T425A counted along it
Chain of PLUTO V145A G147Q (Q9LZD0 whole entry V145A/G147Q): as the sequence (Q9LZD0 whole entry G147Q/E227Q) above, with V145A, Q227E counted along it
Chain of PLUTO F341A (Q9LZD0 whole entry F341A): as the sequence (Q9LZD0 whole entry G147Q/E227Q) above, with Q147G, Q227E, F341A counted along it
Chain of PLUTO I226A (Q9LZD0 whole entry I226A): as the sequence (Q9LZD0 whole entry G147Q/E227Q) above, with Q147G, I226A, Q227E counted along it

Compound: Cc1ncc(C[n+]2csc(CCO)c2C)c(N)n1 [thiamine]
- Effect of competitor on uracil transport (PLUTO W223A): inhibited

Compound: PLUTO G147Q (Arabidopsis thaliana; G147Q)
- Km (O=c1cc[nH]c(=O)[nH]1; other: mutant G147Q): 36.07 (±2,32) μM
- Km (Nc1ncnc2nc[nH]c12; other: mutant G147Q): 0.68 (±0.20) μM

Compound: PLUTO E227A (Arabidopsis thaliana; E227A)
- Km (Nc1ncnc2nc[nH]c12; other: mutant E227A): 0.21 (±0.05) μM

Compound: PLUTO E227Q (Arabidopsis thaliana; E227Q)
- Km (Nc1ncnc2nc[nH]c12; other: mutant E227Q): 0.22 (±0.05) μM

Compound: O=c1[nH]cnc2nc[nH]c12 [hypoxanthine]
- Effect of competitor on guanine transport (PLUTO W223A): no longer able to inhibit
- Effect of competitor on guanine transport (PLUTO I226A): inhibited
- Effect of competitor on guanine transport (PLUTO F341A): inhibited
- Effect of competitor on guanine transport (PLUTO [1]): affected; also recorded: marked inhibition

Compound: PLUTO V145A G147Q (Arabidopsis thaliana; G147Q/V145A)
- Km (O=c1cc[nH]c(=O)[nH]1; other: mutant V145A G147Q): 20.15 (±3.73) μM
- Km (Nc1ncnc2nc[nH]c12; other: mutant V145A G147Q): 0.81 (±0.17) μM

Compound: Nc1nc2nc[nH]c2c(=O)[nH]1 [guanine]
- Net import (PLUTO [2]; 20 μM): 3.4 nmol mg^−1 protein
- Apparent affinity (PLUTO [3]): 6.3 µM
- Residual transport compared to controls (PLUTO E227Q T425A): 25%
- Residual transport compared to controls (PLUTO E227Q G147Q): ≤ 16%
- Residual transport compared to controls (PLUTO E227K): 11%
- Transport activity (in words) (PLUTO G147Q): not significantly altered
- Transport (PLUTO E227D): 0.86 nmol mg^−1 protein
- Residual transport compared to controls (PLUTO E227Q): 21%
- Residual transport relative to controls (PLUTO V145A G147Q): 12%
- Residual transport compared to controls (PLUTO E227A): 4%
- Effect of competitor on uracil transport (PLUTO [1]): reduced
- Effect of competitor on adenine transport (PLUTO [1]): not influenced

Compound: O=c1cc[nH]c(=O)[nH]1 [uracil]
- Net import (PLUTO [2]; 20 μM): 3.2 nmol mg^−1 protein
- Import into induced E. coli cells (PLUTO [2]; wild type PLUTO, 20 μM, 5 min incubation, not corrected for uninduced cells): 3.7±0.28 nmol mg^−1 protein
- Apparent affinity (PLUTO [3]): 16.4 µM
- Residual transport compared to controls (PLUTO E227Q G147Q): ≤ 16%
- Transport activity (in words) (PLUTO E227K): completely extinguished
- Transport activity (in words) (PLUTO G147Q): not significantly altered
- Transport (PLUTO E227D): 0.53 nmol mg^−1 protein
- Transport activity (in words) (PLUTO E227Q): completely extinguished
- Increase of transport versus control (PLUTO V145A G147Q): 50%
- Transport activity (in words) (PLUTO E227A): completely extinguished
- Effect of competitor on adenine transport (PLUTO [1]): not influenced
- Effect of competitor on guanine transport (PLUTO [1]): marked inhibitory effects

Compound: Cc1c[nH]c(=O)[nH]c1=O [thymine]
- Effect of competitor on uracil transport (PLUTO W223A): inhibited
- Transport substrate status in direct uptake studies (PLUTO [2]; wild type PLUTO): not identified as transport substrates
- Effect of competitor on uracil transport (PLUTO [1]): affected

Compound: O=C(O)c1cc(=O)[nH]c(=O)[nH]1 [orotate]
- Transport substrate status in direct uptake studies (PLUTO [2]; wild type PLUTO): not identified as transport substrates
- Effect of competitor on uracil transport (PLUTO [1]): affected

Compound: Nc1ncnc2[nH]cnc12 [adenine]
- Apparent affinity (PLUTO [3]): 0.4 µM
- Residual transport compared to controls (PLUTO E227Q T425A): 32%
- Residual transport compared to controls (PLUTO E227Q G147Q): ≤ 16%
- Residual transport compared to controls (PLUTO E227K): 7%
- Impairment of transport versus control (PLUTO G147Q): 45%
- Transport (PLUTO E227D): 2.1 nmol mg^−1 protein
- Transport rate relative to controls (PLUTO E227D): 64%
- Increase of transport versus control (PLUTO E227Q): 21%
- Residual transport compared to controls (PLUTO E227A): 26%
- Effect of competitor on uracil transport (PLUTO [1]): remained unaffected
- Effect of competitor on guanine transport (PLUTO [1]): marked inhibitory effects

Compound: PLUTO E227D (Arabidopsis thaliana; E227D)
- Km (O=c1cc[nH]c(=O)[nH]1; other: mutant E227D): 5.18 (±1.21) μM
- Km (Nc1ncnc2nc[nH]c12; other: mutant E227D): 0.97 (±0.21) μM
- Km (Nc1nc2nc[nH]c2c(=O)[nH]1): 3.70 (±0.72) μM

Compound: O=C1CCNC(=O)N1 [dihydrouracil]
- Effect of competitor on uracil transport (PLUTO W223A): inhibited

Compound: O=c1[nH]c(=O)c2[nH]c(=O)[nH]c2[nH]1 [uric acid]
- Effect of competitor on guanine transport (PLUTO W223A): no longer able to inhibit
- Effect of competitor on guanine transport (PLUTO [1]): affected

Compound: O=C1NC(=O)C(Cc2ccccc2)N1 (stereo not shown) [benzyl hydantoin]
- Transport by PLUTO judged by competitive binding analysis (PLUTO [1]): no indication for a transport
